Source: the supplement of paper PMC10307832

Assays:
Test in all cases: relative viability (nuclei count vs DMSO), 5 days (fraction); higher = more cells survive
NCI-H1944 = system: NCI-H1944
In short: (§1)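 Relative viability divides the nuclei count in treated wells by that in vehicle wells. Lung cancer cell lines were seeded in 1536-well plates, dosed by pin tool the next day, and fixed and stained after 5 days in one step with final 0.05% Triton X-100, 1% formaldehyde and 1 ug/ml Hoechst. Dosing was a single drug or a fixed anchor-drug dose plus five library-drug doses (not always all listed) in √10 steps, and values are medians of duplicate plates imaged at 4×.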

NCI-H1437 = system: NCI-H1437
In short: as §1

NCI-H1650 = system: NCI-H1650
In short: as §1

HCC-827 = system: HCC-827
In short: as §1

RERF-LC-KJ = system: RERF-LC-KJ
In short: as §1

NCI-H647 = system: NCI-H647
In short: as §1

NCI-H2087 = system: NCI-H2087
In short: as §1

NCI-H322M = system: NCI-H322M
In short: as §1

NCI-H2405 = system: NCI-H2405
In short: as §1

LCLC-103H = system: LCLC-103H
In short: as §1

CAL-12T = system: CAL-12T
In short: as §1

NCI-H1792 = system: NCI-H1792
In short: as §1

NCI-H727 = system: NCI-H727
In short: as §1

NCI-H2228 = system: NCI-H2228
In short: as §1

BEN = system: BEN
In short: as §1

LCLC-97TM1 = system: LCLC-97TM1
In short: as §1

201T = system: 201T
In short: as §1

NCI-H1793 = system: NCI-H1793
In short: as §1

SK-LU-1 = system: SK-LU-1
In short: as §1

NCI-H3122 = system: NCI-H3122
In short: as §1

NCI-H1395 = system: NCI-H1395
In short: as §1

LXF-289 = system: LXF-289
In short: as §1

CC(=O)O[C@@]12CO[C@@H]1C[C@H](O)[C@@]1(C)C(=O)[C@H](O)C3=C(C)[C@@H](OC(=O)[C@H](O)[C@@H](NC(=O)OC(C)(C)C)c4ccccc4)C[C@@](O)([C@@H](OC(=O)c4ccccc4)[C@H]21)C3(C)C [Docetaxel] + O=C(c1cc(Cc2n[nH]c(=O)c3ccccc23)ccc1F)N1CCN(C(=O)C2CC2)CC1 [Olaparib] (partner 8 µM)
relative viability (NCI-H1944; first compound 0.0002 µM): 0.439 | relative viability (NCI-H1944; first compound 0.000632 µM): 0.396 | relative viability (NCI-H1944; first compound 0.002 µM): 0.339 | relative viability (NCI-H1944; first compound 0.006325 µM): 0.238 | relative viability (NCI-H1944; first compound 0.02 µM): 0.118 | relative viability (NCI-H1437; first compound 0.0002 µM): 0.613 | relative viability (NCI-H1437; first compound 0.000632 µM): 0.442 | relative viability (NCI-H1437; first compound 0.002 µM): 0.384 | relative viability (NCI-H1437; first compound 0.006325 µM): 0.269 | relative viability (NCI-H1437; first compound 0.02 µM): 0.177 | relative viability (NCI-H1650; first compound 0.0002 µM): 0.64 | relative viability (NCI-H1650; first compound 0.000632 µM): 0.545 | relative viability (NCI-H1650; first compound 0.002 µM): 0.218 | relative viability (NCI-H1650; first compound 0.006325 µM): 0.241 | relative viability (NCI-H1650; first compound 0.02 µM): 0.162 | relative viability (HCC-827; first compound 0.0002 µM): 0.626 | relative viability (HCC-827; first compound 0.000632 µM): 0.662 | relative viability (HCC-827; first compound 0.002 µM): 0.329 | relative viability (HCC-827; first compound 0.006325 µM): 0.287 | relative viability (HCC-827; first compound 0.02 µM): 0.23 | relative viability (RERF-LC-KJ; first compound 0.0002 µM): 0.793 | relative viability (RERF-LC-KJ; first compound 0.000632 µM): 0.608 | relative viability (RERF-LC-KJ; first compound 0.002 µM): 0.281 | relative viability (RERF-LC-KJ; first compound 0.02 µM): 0.172 | relative viability (NCI-H647; first compound 0.0002 µM): 0.449 | relative viability (NCI-H647; first compound 0.000632 µM): 0.132 | relative viability (NCI-H647; first compound 0.002 µM): 0.0799 | relative viability (NCI-H647; first compound 0.006325 µM): 0.0764 | relative viability (NCI-H647; first compound 0.02 µM): 0.0432 | relative viability (NCI-H2087; first compound 0.0002 µM): 0.586 | relative viability (NCI-H2087; first compound 0.000632 µM): 0.3 | relative viability (NCI-H2087; first compound 0.002 µM): 0.243 | relative viability (NCI-H2087; first compound 0.006325 µM): 0.125 | relative viability (NCI-H2087; first compound 0.02 µM): 0.0944 | relative viability (NCI-H322M; first compound 0.0002 µM): 0.777 | relative viability (NCI-H322M; first compound 0.000632 µM): 0.797 | relative viability (NCI-H322M; first compound 0.002 µM): 0.721 | relative viability (NCI-H322M; first compound 0.006325 µM): 0.679 | relative viability (NCI-H322M; first compound 0.02 µM): 0.525 | relative viability (NCI-H2405; first compound 0.0002 µM): 0.875 | relative viability (NCI-H2405; first compound 0.000632 µM): 0.712 | relative viability (NCI-H2405; first compound 0.002 µM): 0.557 | relative viability (NCI-H2405; first compound 0.006325 µM): 0.419 | relative viability (NCI-H2405; first compound 0.02 µM): 0.329 | relative viability (LCLC-103H; first compound 0.0002 µM): 0.744 | relative viability (LCLC-103H; first compound 0.000632 µM): 0.803 | relative viability (LCLC-103H; first compound 0.002 µM): 0.748 | relative viability (LCLC-103H; first compound 0.006325 µM): 0.643 | relative viability (LCLC-103H; first compound 0.02 µM): 0.481 | relative viability (CAL-12T; first compound 0.0002 µM): 0.591 | relative viability (CAL-12T; first compound 0.000632 µM): 0.392 | relative viability (CAL-12T; first compound 0.002 µM): 0.253 | relative viability (CAL-12T; first compound 0.006325 µM): 0.263 | relative viability (CAL-12T; first compound 0.02 µM): 0.173 | relative viability (NCI-H1792; first compound 0.0002 µM): 0.281 | relative viability (NCI-H1792; first compound 0.000632 µM): 0.306 | relative viability (NCI-H1792; first compound 0.002 µM): 0.0724 | relative viability (NCI-H1792; first compound 0.006325 µM): 0.0761 | relative viability (NCI-H1792; first compound 0.02 µM): 0.0428 | relative viability (NCI-H727; first compound 0.0002 µM): 0.664 | relative viability (NCI-H727; first compound 0.000632 µM): 0.526 | relative viability (NCI-H727; first compound 0.002 µM): 0.682 | relative viability (NCI-H727; first compound 0.006325 µM): 0.645 | relative viability (NCI-H727; first compound 0.02 µM): 0.524 | relative viability (NCI-H2228; first compound 0.0002 µM): 0.446 | relative viability (NCI-H2228; first compound 0.000632 µM): 0.275 | relative viability (NCI-H2228; first compound 0.002 µM): 0.153 | relative viability (NCI-H2228; first compound 0.006325 µM): 0.13 | relative viability (NCI-H2228; first compound 0.02 µM): 0.0992 | relative viability (BEN; first compound 0.0002 µM): 1.11 | relative viability (BEN; first compound 0.000632 µM): 1.06 | relative viability (BEN; first compound 0.002 µM): 0.514 | relative viability (BEN; first compound 0.006325 µM): 0.357 | relative viability (BEN; first compound 0.02 µM): 0.275 | relative viability (LCLC-97TM1; first compound 0.0002 µM): 0.467 | relative viability (LCLC-97TM1; first compound 0.000632 µM): 0.272 | relative viability (LCLC-97TM1; first compound 0.002 µM): 0.107 | relative viability (LCLC-97TM1; first compound 0.006325 µM): 0.0877 | relative viability (LCLC-97TM1; first compound 0.02 µM): 0.0634 | relative viability (201T; first compound 0.0002 µM): 0.821 | relative viability (201T; first compound 0.000632 µM): 0.774 | relative viability (201T; first compound 0.002 µM): 0.637 | relative viability (201T; first compound 0.006325 µM): 0.432 | relative viability (201T; first compound 0.02 µM): 0.267 | relative viability (NCI-H1793; first compound 0.0002 µM): 0.8 | relative viability (NCI-H1793; first compound 0.000632 µM): 0.517 | relative viability (NCI-H1793; first compound 0.002 µM): 0.287 | relative viability (NCI-H1793; first compound 0.006325 µM): 0.293 | relative viability (SK-LU-1; first compound 0.0002 µM): 0.479 | relative viability (SK-LU-1; first compound 0.000632 µM): 0.349 | relative viability (SK-LU-1; first compound 0.002 µM): 0.315 | relative viability (SK-LU-1; first compound 0.006325 µM): 0.256 | relative viability (SK-LU-1; first compound 0.02 µM): 0.167 | relative viability (NCI-H3122; first compound 0.0002 µM): 0.658 | relative viability (NCI-H3122; first compound 0.000632 µM): 0.623 | relative viability (NCI-H3122; first compound 0.002 µM): 0.521 | relative viability (NCI-H3122; first compound 0.006325 µM): 0.202 | relative viability (NCI-H3122; first compound 0.02 µM): 0.129 | relative viability (NCI-H1395; first compound 0.0002 µM): 0.502 | relative viability (NCI-H1395; first compound 0.000632 µM): 0.469 | relative viability (NCI-H1395; first compound 0.002 µM): 0.481 | relative viability (NCI-H1395; first compound 0.006325 µM): 0.341 | relative viability (NCI-H1395; first compound 0.02 µM): 0.339 | relative viability (LXF-289; first compound 0.0002 µM): 1.06 | relative viability (LXF-289; first compound 0.000632 µM): 0.393 | relative viability (LXF-289; first compound 0.002 µM): 0.195 | relative viability (LXF-289; first compound 0.006325 µM): 0.111 | relative viability (LXF-289; first compound 0.02 µM): 0.0839
